Measured values reported in paper PMC5540152 (Cell reports, 2017).
Ends that are not written are not given here.

How the values were obtained:
CaMKII [1] = molecular target: T1, CaMKII (Homo sapiens, UniProt Q9UQM7); conditions: stimulated CaMKII activity; ref Coultrap and Bayer, 2011; cited from earlier work
CaMKII [2] = molecular target: T1, CaMKII; assay: Kinetics of CaMKII inhibition; format: biochemical

T1 sequence (Q9UQM7 whole entry): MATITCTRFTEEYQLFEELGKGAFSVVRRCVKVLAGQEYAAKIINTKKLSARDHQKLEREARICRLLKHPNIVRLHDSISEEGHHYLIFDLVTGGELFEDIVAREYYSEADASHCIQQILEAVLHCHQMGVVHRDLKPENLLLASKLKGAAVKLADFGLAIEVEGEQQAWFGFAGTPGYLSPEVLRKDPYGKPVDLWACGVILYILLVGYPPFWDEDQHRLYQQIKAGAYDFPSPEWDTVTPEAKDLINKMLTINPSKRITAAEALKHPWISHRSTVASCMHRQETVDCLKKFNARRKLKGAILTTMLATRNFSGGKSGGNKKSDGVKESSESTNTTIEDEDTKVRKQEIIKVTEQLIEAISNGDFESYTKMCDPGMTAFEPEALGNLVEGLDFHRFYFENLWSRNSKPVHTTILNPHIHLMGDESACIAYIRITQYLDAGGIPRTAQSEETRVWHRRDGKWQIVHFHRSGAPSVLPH

α-factor compared to the parent compounds (CaMKII [2]; vs CN19 and CN19a2v): minimal effect on the α-factor | Ki compared to the parent compounds (CaMKII [2]; vs parent compounds CN19 and CN19a2v): dramatically improved
Sequence: KRAPKLGQIGRQKAVDIED [CN19o]
enhancement of potency (CaMKII [1]): > 250 fold | enhancement of selectivity (CaMKII [1]): > 250 fold
